Assay results: patent publication US20250313648A1, “Binders of Chondroitin Sulfate Proteoglycan (CSPG4) Polypeptides” (Regents of the University of Minnesota, priority 2021, published 2025)

How the values were obtained:
[1] = test system: ZEB1 expression in HEY cells; test: Western blot for pFAK, FAK and ZEB1 after FAK inhibitor treatment; format: cell-based, human; conditions: normal growth medium, 24 hours, vs DMSO
Procedure: FIGS. 9A-9J. CSPG4 expression is associated with epithelial-to-mesenchymal plasticity, mediated by CSPG4 associated changes in ZEB1 expression. FIG. 9A) The indicated cell lines both Mock(M) and CRISPR(C) were cultured separately in spheroid formation assays for 7 days, collected and analyzed by western blot for various EMT markers. FIG. 9B) Western blot for Zebl and CSPG4 expression in EOC cell lines treated with siRNA for ZEB1 or control for 48 hours. FIG. 9C) Western blot for pFAK, FAK and ZEB1 in HEY cells treated with either DMSO (control) or FAK inhibitor PND-1186 at the indicated concentrations in normal growth medium for 24 hours. FIG. 9D) Spheroid formation in methylcellulose of EOC cell lines treated with siRNA to ZEB1 or control for 7 days. Bars represent spheroid counts from five random fields/well from triplicate wells+/−S.D. *p<0.02 by students t-test with Welch's correction. n=3 from 3 individual experiments. FIG. 9E) Invasion assay of EOC cells treated with ZEB1 siRNA or control siRNA (methods). *p<0.002 by student's t-test with Welch's correction. n=3 from 3 individual experiments. FIGS. 9F and 9G) Cells were transfected with control or ZEB1 siRNA overnight and plated in the cisplatin cytotoxicity assay the following day. MTS data was collected after 4 days of cisplatin treatment. […]

[2] = test system: ES-2, HEY, A2780 mock and CSPG4 knockout cells; test: Cisplatin cytotoxicity assay (MTS); format: cell-based, human; conditions: CSPG4 knockout vs mock, three cell lines (A2780, HEY, ES-2), 96 hours of treatment
Description: FIGS. 5A-5G. CSPG4 knockout results in significant loss of invasive capacity and cisplatin resistance in multiple ovarian tumor cell lines. Invasion assays using control (Mock) and CSPG4 knockout (CRISPR) HEY cells (FIG. 5A) or A2780 cells (FIG. 5B). Bars represent the total number of invading cells from five random fields/well from triplicate wells, +/−S.D., from three replicate experiments, n=6. P values determined by student's t-test with Welch's correction. […] Lanes: 1—ES-2 Parent, 2—ES-2 Mock, 3—ES-2 CSPG4 knockout, 4—ES-2 CSPG4 Rescue. […] Invasive capacity is rescued in the ES-2 CRISPR knockout line with CSPG4 re-expression (Rescue). P values determined by student's t-test with Welch's correction. FIGS. 5E-G show the cell viability of mock and knockout (CRISPR) A2780 cells (FIG. 5E), mock and knockout HEY cells (FIG. 5F), and mock, knockout and rescue ES-2 cells (FIG. 5G) treated with increasing concentrations of cisplatin. Dose response curves were plotted as the percent of MTS staining vs. untreated cells for each cell line +/−s.e.m. from three replicate experiments (n=9). The phenotype was rescued by re-expression of CSPG4 in the ES-2 CRISPR cells (ES-2 Rescue, in FIG. 5G).
Cisplatin cytotoxicityAssay: Cisplatin stock (3.3 mM) was diluted with growth medium to the required concentrations before each experiment. […] Absorbance at 570 nm was collected on a Tecan 200 plate reader. […]

With `CNC(=O)c1ccccc1Nc1cc(Nc2ccc(N3CCOCC3)cc2OC)ncc1C(F)(F)F` [PND-1186] the ZEB1 expression [1] was “inhibited”.
In the case of `N.N.[Cl][Pt][Cl]` [cisplatin, Cisplatin], the “reduction in the IC50 for the knockout cell lines” value [2] is reported as 3.6-to-8.8 fold.
